Activity calls are given as the source filed them. No cut-off for these calls is given here.
What was measured:
[1] = biological target: T1, Peroxisome proliferator-activated receptor alpha (Homo sapiens, UniProt Q07869); experiment: Agonist activity at human PPARalpha transfected in human MCF7 cells after 16 hrs by luciferase reporter gene assay; type: cell-based
T1 sequence (Q07869 whole entry): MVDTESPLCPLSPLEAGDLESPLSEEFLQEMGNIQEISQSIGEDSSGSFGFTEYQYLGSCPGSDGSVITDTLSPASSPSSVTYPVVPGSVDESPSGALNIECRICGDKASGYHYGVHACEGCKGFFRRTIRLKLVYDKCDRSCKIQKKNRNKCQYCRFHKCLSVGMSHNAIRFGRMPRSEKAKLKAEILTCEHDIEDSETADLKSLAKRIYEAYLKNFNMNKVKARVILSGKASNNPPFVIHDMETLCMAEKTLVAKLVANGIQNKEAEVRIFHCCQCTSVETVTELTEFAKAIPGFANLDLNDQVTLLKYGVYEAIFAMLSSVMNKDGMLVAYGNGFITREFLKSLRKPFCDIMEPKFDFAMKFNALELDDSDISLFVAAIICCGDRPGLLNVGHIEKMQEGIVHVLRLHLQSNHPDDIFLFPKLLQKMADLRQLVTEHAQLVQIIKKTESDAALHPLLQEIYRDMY

[2] = biological target: T2, Peroxisome proliferator-activated receptor gamma (Homo sapiens, UniProt P37231); experiment: Agonist activity at human PPARgamma transfected in human MCF7 cells after 16 hrs by luciferase reporter gene assay; type: cell-based
T2 sequence (P37231 whole entry): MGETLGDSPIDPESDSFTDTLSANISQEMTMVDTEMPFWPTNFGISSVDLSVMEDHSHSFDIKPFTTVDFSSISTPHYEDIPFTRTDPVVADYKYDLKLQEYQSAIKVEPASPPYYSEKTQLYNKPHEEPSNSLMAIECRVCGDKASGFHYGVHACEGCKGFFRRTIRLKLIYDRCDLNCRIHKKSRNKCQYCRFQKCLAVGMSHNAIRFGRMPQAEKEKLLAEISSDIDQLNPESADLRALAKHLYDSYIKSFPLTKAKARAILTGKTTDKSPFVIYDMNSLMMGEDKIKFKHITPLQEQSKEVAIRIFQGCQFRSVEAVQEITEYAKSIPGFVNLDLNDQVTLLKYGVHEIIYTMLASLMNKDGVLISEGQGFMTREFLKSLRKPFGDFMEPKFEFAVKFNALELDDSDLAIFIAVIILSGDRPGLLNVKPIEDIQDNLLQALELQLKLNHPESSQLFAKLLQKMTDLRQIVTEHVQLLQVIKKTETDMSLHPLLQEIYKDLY

Rattus norvegicus [3] = experiment: Inhibition of food intake in ip dosed 24 hrs food derived obese Wistar rat after 30 to 240 mins; type: functional, organism-based
Rattus norvegicus [4] = experiment: Inhibition of food intake in 24 hrs food derived obese Wistar rat at 3 mg/kg, ip measured up to 120 mins relative to vehicle-treated control; type: functional
Rattus norvegicus [5] = experiment: Inhibition of food intake in 24 hrs food derived obese Wistar rat at 3 mg/kg, ip after 240 mins; type: functional, organism-based
Rattus norvegicus [6] = experiment: Inhibition of food intake in ip dosed 24 hrs food derived obese Wistar rat after 24 hrs; type: functional, organism-based

SMILES | EC50 [1] [nM] | further results
C[C@@H](Cc1cccc(NC(=O)c2ccc(NC(=O)Cc3ccc(C(C)(C)C)cc3)cc2)c1)C(=O)O | 866 | –
CCCCCNC(=O)c1ccc(NC(=O)c2cccc(CN3C(=O)OC[C@@H]3Cc3ccccc3)c2)cc1 | > 100000 | –
O=C(NCc1ccc(C(F)(F)F)cc1)c1ccc(NC(=O)c2cccc(CN3C(=O)OC[C@H]3Cc3ccccc3)c2)cc1 | > 100000 | EC50 [2]: > 100000 nM
CC(C)(C)c1ccc(CNC(=O)c2ccc(NC(=O)c3cccc(CN4C(=O)OC[C@@H]4Cc4ccccc4)c3)cc2)cc1 | 756 | –
CC(C)(C)c1ccc(CNC(=O)c2ccc(NC(=O)c3cccc(CN4C(=O)OC[C@H]4Cc4ccccc4)c3)cc2)cc1 | – | inhibition (Rattus norvegicus [3]): Dose-dependent effect; inhibition in vivo at 3 mg/kg (Rattus norvegicus [4]): 50%; inhibition (Rattus norvegicus [5]): inactive
O=C(NCc1ccccc1)c1ccc(NC(=O)c2cccc(CN3C(=O)OC[C@H]3Cc3ccccc3)c2)cc1 | > 100000 | EC50 [2]: > 100000 nM
O=C(NCC1CCCCC1)c1ccc(NC(=O)c2cccc(CN3C(=O)OC[C@H]3Cc3ccccc3)c2)cc1 | > 100000 | EC50 [2]: > 100000 nM
CCCCCCCCCCCCNC(=O)c1ccc(NC(=O)c2cccc(CN3C(=O)OC[C@H]3Cc3ccccc3)c2)cc1 | 6620 | EC50 [2]: > 100000 nM
O=C(NCc1ccc(C(F)(F)F)cc1)c1ccc(NC(=O)c2cccc(CN3C(=O)OC[C@@H]3Cc3ccccc3)c2)cc1 | > 100000 | –
O=C(Nc1ccc(C(=O)NC2CC2)cc1)c1cccc(CN2C(=O)OC[C@H]2Cc2ccccc2)c1 | 1980 | –
CCCCCC(=O)Nc1ccc(C(=O)Nc2cccc(C[C@H](C)C(=O)N3C(=O)OC[C@H]3Cc3ccccc3)c2)cc1 | 1920 | –
CCCCCNC(=O)c1ccc(NC(=O)c2cccc(CN3C(=O)OC[C@H]3Cc3ccccc3)c2)cc1 | – | inhibition (Rattus norvegicus [3]): Dose-dependent effect; inhibition (Rattus norvegicus [6]): Dose-dependent effect
C[C@@H](Cc1cccc(NC(=O)c2ccc(NC(=O)Cc3ccc(C(C)(C)C)cc3)cc2)c1)C(=O)N1C(=O)OC[C@H]1Cc1ccccc1 | 966 | –
CCCCCC(=O)Nc1ccc(C(=O)Nc2cccc(C[C@H](C)C(=O)O)c2)cc1 | 981 | –
